These are literature values, as cited in patent US20250090612A1, “FEED ADDITIVE COMPOSITIONS AND METHODS OF USE” (PMI Nutrition, LLC, priority 2021, published 2025).

The data set has as its system C. elegans. To be noted: C. elegans assay.

Regarding urolithins, the “concentration needed to obtain a positive effect on muscle function” value is 50 µM and the “concentration required to trigger the muscle function response” value was 11.4 µg/mL.
